Tests used:
Format in all cases: biochemical
JIK = target: T1, JIK (Homo sapiens, UniProt Q9H2K8); assay: JIK Luciferase-Coupled Chemiluminescent Kinase assay (LCCA); conditions: 2 μM ATP, 10 μM MBP, 6 nM JIK, 2 hours; read-out: JIK inhibition IC50
T1 construct: 6 nM JIK (baculovirus expressed human KIAA 1361 kinase domain2-318); made in house
T1 sequence (Q9H2K8 2-318): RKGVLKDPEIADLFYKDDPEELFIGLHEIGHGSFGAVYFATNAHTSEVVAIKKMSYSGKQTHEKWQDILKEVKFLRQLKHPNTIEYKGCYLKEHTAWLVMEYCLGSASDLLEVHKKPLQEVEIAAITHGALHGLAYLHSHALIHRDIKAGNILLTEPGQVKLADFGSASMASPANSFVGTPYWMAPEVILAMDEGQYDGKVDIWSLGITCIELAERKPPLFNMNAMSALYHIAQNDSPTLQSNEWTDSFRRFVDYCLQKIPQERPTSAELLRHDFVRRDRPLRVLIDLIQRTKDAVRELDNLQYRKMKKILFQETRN
Protocol: (§1) Kinase activity and compound inhibition are investigated using one or more of the three assay formats described below. The ATP concentrations for each assay are selected to be close to the Michaelis-Menten constant (KM) for each individual kinase. Dose-response experiments are performed at 10 different inhibitor concentrations in a 384-well plate format. The data are fitted to four-parameter equation (2) below; where Y is the observed signal, X is the inhibitor concentration, Min is the background signal in the absence of enzyme (0% enzyme activity), Max is the signal in the absence of inhibitor (100% enzyme activity), IC50 is the inhibitor concentration at 50% enzyme inhibition and H represents the empirical Hill's slope to measure the cooperativity. Typically H is close to unity. Y=Min+(Max−Min)/(1+(X/IC50)ˆH) Equation (2) KIAA 1361 Assay: […]
(§2) JIK biochemical activity was assessed using a Luciferase-Coupled Chemiluminescent Kinase assay (LCCA) format. Kinase activity was measured as the percent ATP remaining following the kinase reaction. Remaining ATP was detected by luciferase-luciferin-coupled chemiluminescence. Specifically, the reaction was initiated by mixing test compounds, 2 μM ATP, 10 μM MBP and 6 nM JIK (baculovirus expressed human KIAA 1361 kinase domain2-318) in a 20 uL assay buffer (20 mM Tris-HCL pH7.5, 10 mM MgCl2, 0.02% Triton X-100, 100 mM DTT, 2 mM MnCl2). The mixture is incubated at ambient temperature for 2 hours after which 20 uL luciferase-luciferin mix is added and the chemiluminescent signal read using a Wallac Victor^2 reader. The luciferase-luciferin mix consists of 50 mM HEPES, pH 7.8, 8.5 ug/mL oxalic acid (pH 7.8), 5 (or 50) mM DTT, 0.4% Triton X-100, 0.25 mg/mL coenzyme A, 63 uM AMP, 28 ug/mL luciferin and 40,000 units of light/mL luciferase.

TAO = target: T2, TAO (Homo sapiens, UniProt Q9UL54); assay: TAO Luciferase-Coupled Chemiluminescent Kinase assay (LCCA); conditions: 2 μM ATP, 10 μM MBP, 12 nM TAO, 2 hours; read-out: TAO inhibition IC50
T2 sequence (Q9UL54 1-1235): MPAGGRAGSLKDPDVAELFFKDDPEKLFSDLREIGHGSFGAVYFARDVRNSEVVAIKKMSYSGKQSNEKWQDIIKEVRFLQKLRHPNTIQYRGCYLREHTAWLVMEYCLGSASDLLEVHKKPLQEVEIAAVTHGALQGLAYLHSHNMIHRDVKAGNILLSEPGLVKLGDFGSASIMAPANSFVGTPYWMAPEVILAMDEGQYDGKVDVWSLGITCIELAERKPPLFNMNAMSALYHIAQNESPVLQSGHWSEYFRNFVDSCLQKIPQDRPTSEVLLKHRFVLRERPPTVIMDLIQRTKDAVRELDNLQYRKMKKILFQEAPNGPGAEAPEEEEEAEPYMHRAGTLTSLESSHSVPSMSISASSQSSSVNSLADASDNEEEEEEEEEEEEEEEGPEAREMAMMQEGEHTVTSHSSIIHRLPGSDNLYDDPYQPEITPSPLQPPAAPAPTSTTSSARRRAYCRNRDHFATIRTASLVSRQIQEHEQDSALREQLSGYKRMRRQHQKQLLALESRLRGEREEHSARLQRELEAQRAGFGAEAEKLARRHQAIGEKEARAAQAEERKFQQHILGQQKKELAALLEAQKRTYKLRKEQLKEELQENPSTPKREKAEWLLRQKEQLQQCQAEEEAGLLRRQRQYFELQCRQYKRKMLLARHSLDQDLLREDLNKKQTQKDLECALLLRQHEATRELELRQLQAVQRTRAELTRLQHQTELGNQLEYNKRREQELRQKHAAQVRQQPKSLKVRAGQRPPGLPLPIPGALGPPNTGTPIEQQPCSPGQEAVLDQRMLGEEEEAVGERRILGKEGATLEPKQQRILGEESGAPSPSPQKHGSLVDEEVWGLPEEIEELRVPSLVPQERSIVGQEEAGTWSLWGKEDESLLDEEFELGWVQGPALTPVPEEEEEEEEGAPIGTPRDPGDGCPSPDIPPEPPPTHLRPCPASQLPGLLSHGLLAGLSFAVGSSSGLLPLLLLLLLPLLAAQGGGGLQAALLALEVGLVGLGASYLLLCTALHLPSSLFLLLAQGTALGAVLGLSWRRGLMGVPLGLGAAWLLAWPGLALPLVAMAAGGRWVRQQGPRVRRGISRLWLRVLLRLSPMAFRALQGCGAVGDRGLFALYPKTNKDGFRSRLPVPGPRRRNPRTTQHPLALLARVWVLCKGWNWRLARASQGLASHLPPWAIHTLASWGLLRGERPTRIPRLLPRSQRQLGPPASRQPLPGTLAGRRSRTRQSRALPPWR
Protocol: as §1
as §2, with “TAO biochemical” for “JIK biochemical”, “and 12” for “and 6”, “nM TAO” for “nM JIK”, “kinase domain 2-322)” for “kinase domain2-318)”, “mM […],” for “mM HEPES,”, “[…]” for “0.25 mg/mL”

[1] = target: T3, KIAA 1361 (baculovirus expressed human KIAA 1361 kinase domain 2-322) (Homo sapiens, UniProt Q7L7X3); assay: KIAA 1361 Luciferase-Coupled Chemiluminescent Kinase assay (LCCA); conditions: 2 μM ATP, 10 μM MBP, 12 nM KIAA 1361, 2 hours; read-out: KIAA1361 inhibition IC50
T3 construct: human KIAA 1361 kinase domain 2-322; made in house
T3 sequence (Q7L7X3 2-322): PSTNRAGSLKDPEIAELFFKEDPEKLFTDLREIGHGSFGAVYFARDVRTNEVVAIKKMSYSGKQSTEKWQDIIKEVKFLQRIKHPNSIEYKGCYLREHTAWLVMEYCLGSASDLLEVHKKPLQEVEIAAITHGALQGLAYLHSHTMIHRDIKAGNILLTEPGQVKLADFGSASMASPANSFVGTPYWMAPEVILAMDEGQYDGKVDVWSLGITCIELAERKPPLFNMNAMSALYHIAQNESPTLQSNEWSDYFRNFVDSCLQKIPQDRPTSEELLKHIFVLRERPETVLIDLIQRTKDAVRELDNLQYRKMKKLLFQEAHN
Protocol: as §1
as §2, with “KIAA 1361 biochemical” for “JIK biochemical”, “and 12” for “and 6”, “nM KIAA 1361” for “nM JIK”, “kinase domain 2-322)” for “kinase domain2-318)”

Compound | IC50 (JIK) | IC50 (TAO) | IC50 [1]
CCc1ccc(-c2ccc(C(=O)NCC(=O)NCc3ccccc3)cc2)cc1 [Entry 52, 4-ethyl-N-{2-oxo-2-[(phenylmethyl)amino]ethyl}biphenyl-4-carboxamide] | > 5000 nM | > 5000 nM | > 5000 nM
CCc1ccc(-c2ccc(C(=O)NCC(=O)Nc3nc4ccc(OC)cc4s3)cc2)cc1 [Entry 64, 4′ethyl-N-(2-{[6-(methyloxy)-1,3-benzothiazol-2-yl]amino}-2-oxoethyl)biphenyl-4-carboxamide] | > 5000 nM | > 5000 nM | > 5000 nM
Cc1cc(C(=O)NCC(=O)NC2CCCc3ccccc32)cc(C)c1OCc1ccccc1 (stereo not drawn) [Entry 20, 3,5-dimethyl-N-{2-oxo-2-(1,2,3,4-tetrahydronaphthalen-1-ylamino)ethyl]-4-[(phenylmethyl)oxy]benzamide] | 50 to 500 nM | 500 to 5000 nM | 50 to 500 nM
O=C(CNC(=O)c1ccc(N2CCCCC2)cc1)NC1CCCc2ccccc21 (stereo not drawn) [Entry 77, N-[2-oxo-2-(1,2,3,4-tetrahydronaphthalen-1-ylamino)ethyl]-4-piperidin-1-ylbenzamide] | 50 to 500 nM | 500 to 5000 nM | 500 to 5000 nM
O=C(CCN1CCCCC1)NCC(=O)NC1CCCc2ccccc21 (stereo not drawn) [Entry 88, N-[2-oxo-2-(1,2,3,4-tetrahydronaphthalen-1-ylamino)ethyl]-3-piperidin-1-ylpropanamide] | > 5000 nM | > 5000 nM | > 5000 nM
CCCCOc1ccc(C(=O)NCC(=O)NC2CCCc3ccccc32)cc1 (stereo not drawn) [Entry 27, 4-(butyloxy)-N-[2-oxo-2-(1,2,3,4-tetrahydronaphthalen-1-ylamino)ethyl]benzamide] | 50 to 500 nM | 500 to 5000 nM | 500 to 5000 nM
O=C(CNC(=O)c1ccc(N2CCCCC2)cc1)Nc1cccc2c1CCCC2 [Entry 89, N-[2-oxo-2-(5,6,7,8-tetrahydronaphthalen-1-ylamino)ethyl]-4-piperidin-1-ylbenzamide] | > 5000 nM | > 5000 nM | > 5000 nM
CCc1ccc(-c2ccc(C(=O)NCC(=O)NCc3ccccc3C(F)(F)F)cc2)cc1 [Entry 79, 4′-ethyl-N-[2-oxo-2-({[2-(trifluoromethyl)phenyl]methyl}amino)ethyl]biphenyl-4-carboxamide] | 50 to 500 nM | > 5000 nM | 50 to 500 nM
O=C(CNC(=O)c1ccc(O)cc1)NC1CCCc2ccccc21 (stereo not drawn) [Entry 56, 4-hydroxy-N-[2-oxo-2-(1,2,3,4-tetrahydronaphthalen-1-ylamino)ethyl]benzamide] | 50 to 500 nM | 500 to 5000 nM | 50 to 500 nM

The remaining lines, values ahead:

IC50 (JIK) | IC50 (TAO) | IC50 [1] | Compound
< 50 nM | 50 to 500 nM | < 50 nM | CCc1ccc(-c2ccc(C(=O)NCC(=O)Nc3cccc4ccccc34)cc2)cc1 [Entry 67, 4′-ethyl-N-[2-(naphthalen-1-ylamino)-2-oxoethyl]biphenyl-4-carboxamide]
50 to 500 nM | > 5000 nM | > 5000 nM | CCCCCCOc1ccc(C(=O)NC(C)C(=O)NC2CCc3ccccc3C2)cc1 (stereo not drawn) [Entry 36, 4-(hexyloxy)-N-[1-methyl-2-oxo-2-(1,2,3,4-tetrahydronaphthalen-2-ylamino)ethyl]benzamide]
< 50 nM | 50 to 500 nM | < 50 nM | CCCCCOc1ccc(C(=O)NCC(=O)NC2CCCc3ccccc32)cc1 (stereo not drawn) [Entry 1, N-[2-oxo-2-(1,2,3,4-tetrahydronaphthalen-1-ylamino)ethyl]-4-(pentyloxy)benzamide]
< 50 nM | 50 to 500 nM | < 50 nM | O=C(CN1CCN(S(=O)(=O)CCc2cccc3ccccc23)CC1)Nc1ccccn1 [Entry 41, 2-{4-[(2-naphthalen-1-ylethyl)sulfonyl]piperazin-1-yl)-N-pyridin-2-ylacetamide]
< 50 nM | < 50 nM | < 50 nM | COc1ccc2nc(NC(=O)CNC(=O)CC(NC(=O)c3ccccc3)c3ccccc3)sc2c1 (stereo not drawn) [Entry 63, N-{3-[(2-{[6-(methyloxy)-1,3-benzothiazol-2-yl]amino}-2-oxoethyl)amino]-3-oxo-1-phenylpropyl}benzamide]

— patent US20070208166A1, “Tao Kinase Modulators And Method Of Use” (Exelixis, Inc., priority 2003, published 2007)
